Data on 24 compounds can be found in patent publication US4761403A, “Lipoxygenase inhibiting compounds” (Abbott Laboratories, priority 1986, dated 1988).

Common to all, as to format: biochemical
In one assay the target is T1, 12-lipoxygenase (Homo sapiens, UniProt P18054).
T1 construct: 12-lipoxygenase obtained from human platelets; from tissue; host or cells: human platelets
T1 sequence (P18054 1-663): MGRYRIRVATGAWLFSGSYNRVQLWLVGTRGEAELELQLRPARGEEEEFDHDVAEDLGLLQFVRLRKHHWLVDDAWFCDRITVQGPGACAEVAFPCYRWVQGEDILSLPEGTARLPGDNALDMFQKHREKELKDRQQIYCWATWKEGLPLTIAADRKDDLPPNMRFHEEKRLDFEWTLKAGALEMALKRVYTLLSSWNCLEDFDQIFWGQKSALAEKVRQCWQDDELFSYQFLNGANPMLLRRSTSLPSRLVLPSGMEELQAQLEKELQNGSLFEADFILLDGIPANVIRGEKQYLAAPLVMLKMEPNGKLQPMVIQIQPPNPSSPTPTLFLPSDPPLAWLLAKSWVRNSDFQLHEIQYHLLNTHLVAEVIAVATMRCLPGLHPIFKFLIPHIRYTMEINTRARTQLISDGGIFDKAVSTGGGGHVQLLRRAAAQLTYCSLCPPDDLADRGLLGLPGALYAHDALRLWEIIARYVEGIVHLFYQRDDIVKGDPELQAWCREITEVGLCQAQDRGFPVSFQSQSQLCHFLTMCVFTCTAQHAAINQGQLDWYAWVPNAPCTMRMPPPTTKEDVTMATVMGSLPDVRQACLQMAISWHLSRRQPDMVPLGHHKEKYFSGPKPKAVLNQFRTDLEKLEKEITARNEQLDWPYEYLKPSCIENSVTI
Put plainly: 12-lipoxygenase inhibition, enzyme obtained from human platelets. Conditions: read-out: Percent Inhibition, 12-Lipoxygenase. As to the method:
(§1) The compounds of this invention are potent inhibitors of 5-, 12-, and 15-lipoxygenases. An assay to determine 5-lipoxygenase activity was performed in incubations containing various concentrations of the test compound and the 20,000 g supernatant from 7.5 million homogenized RBL-1 cells. Reactions were initiated by addition of radiolabeled arachidonic acid and terminated by acidification and ether extraction. Reaction products were separated from nonconverted substrate by thin layer chromatography and measured by liquid scintillation spectroscopy. Inhibition of 5-lipoxygenase activity was calculated as the 50% intercept from linear regression analysis of percentage inhibition versus log concentration plots.
(§2) Inhibitory activities of the compounds of this invention against 12- and 15-lipoxygenase can be determined in the foregoing assay in which 12-lipoxygenase obtained from human platelets, or 15-lipoxygenase obtained from soybean, is substituted for the […] containing cell supernatant fraction.

The next assay concerns the target T2, 5-lipoxygenase (Rattus norvegicus, UniProt P12527).
T2 construct: 20,000 g supernatant from 7.5 million homogenized RBL-1 cells; endogenous in cells; host or cells: RBL-1 cells, 20,000 g supernatant of homogenate
T2 sequence (P12527 1-673): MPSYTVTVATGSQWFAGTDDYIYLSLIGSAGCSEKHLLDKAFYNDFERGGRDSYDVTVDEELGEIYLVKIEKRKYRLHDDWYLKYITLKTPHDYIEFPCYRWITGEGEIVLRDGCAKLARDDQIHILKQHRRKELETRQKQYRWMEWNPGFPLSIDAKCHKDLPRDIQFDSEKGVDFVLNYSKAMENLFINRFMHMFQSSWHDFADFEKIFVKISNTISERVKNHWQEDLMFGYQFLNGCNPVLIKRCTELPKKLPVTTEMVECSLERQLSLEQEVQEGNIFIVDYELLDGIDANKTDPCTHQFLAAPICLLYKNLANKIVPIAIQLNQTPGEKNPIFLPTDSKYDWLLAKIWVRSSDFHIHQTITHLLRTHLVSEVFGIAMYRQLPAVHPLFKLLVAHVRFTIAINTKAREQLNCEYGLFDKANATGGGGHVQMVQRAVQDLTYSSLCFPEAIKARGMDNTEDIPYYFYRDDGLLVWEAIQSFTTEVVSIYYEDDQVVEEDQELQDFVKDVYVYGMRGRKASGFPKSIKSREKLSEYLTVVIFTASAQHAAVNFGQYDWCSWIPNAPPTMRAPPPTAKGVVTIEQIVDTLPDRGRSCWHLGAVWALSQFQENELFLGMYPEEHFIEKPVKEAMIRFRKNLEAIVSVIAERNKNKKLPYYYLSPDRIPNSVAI
Put plainly: 5-lipoxygenase inhibition, 20,000 g supernatant from homogenized RBL-1 cells, radiolabeled arachidonic acid. Conditions: for IC50: 5-lipoxygenase, RBL-1 supernatant, 50% intercept from linear regression of % inhibition vs log concentration. The procedure: as §1

The next assay deals with T3, 15-lipoxygenase (Glycine max, UniProt P08170).
T3 construct: 15-lipoxygenase obtained from soybean; from tissue; host or cells: soybean
T3 sequence (P08170 1-839): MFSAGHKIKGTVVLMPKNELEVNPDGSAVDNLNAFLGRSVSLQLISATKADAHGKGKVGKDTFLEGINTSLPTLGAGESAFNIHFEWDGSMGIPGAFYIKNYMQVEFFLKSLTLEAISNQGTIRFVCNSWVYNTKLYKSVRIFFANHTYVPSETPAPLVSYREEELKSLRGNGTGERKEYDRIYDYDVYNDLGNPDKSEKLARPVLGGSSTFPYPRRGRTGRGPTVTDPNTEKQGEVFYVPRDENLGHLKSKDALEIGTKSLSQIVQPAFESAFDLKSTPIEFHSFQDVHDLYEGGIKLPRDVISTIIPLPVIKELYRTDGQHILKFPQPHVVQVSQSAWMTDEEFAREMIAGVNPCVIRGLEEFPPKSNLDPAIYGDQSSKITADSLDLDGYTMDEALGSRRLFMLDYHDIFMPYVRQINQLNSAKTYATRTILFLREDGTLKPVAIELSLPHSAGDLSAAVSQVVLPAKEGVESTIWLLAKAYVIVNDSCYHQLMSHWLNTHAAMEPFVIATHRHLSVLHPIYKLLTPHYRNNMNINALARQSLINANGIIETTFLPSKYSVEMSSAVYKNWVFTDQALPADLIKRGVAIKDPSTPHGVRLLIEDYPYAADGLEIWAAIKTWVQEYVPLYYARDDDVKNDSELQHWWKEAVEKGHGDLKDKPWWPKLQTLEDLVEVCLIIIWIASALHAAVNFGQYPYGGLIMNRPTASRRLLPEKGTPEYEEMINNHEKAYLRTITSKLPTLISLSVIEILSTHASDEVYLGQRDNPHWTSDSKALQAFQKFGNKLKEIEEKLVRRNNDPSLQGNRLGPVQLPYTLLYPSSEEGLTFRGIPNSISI
Nature of the assay: 15-lipoxygenase inhibition, enzyme obtained from soybean. Conditions: read-out: Percent Inhibition, 15-lipoxygenase. As to the method: as §1, §2

As a reminder, the inhibition is the percentage by which the read-out fell short of the control. By IC50 is commonly meant the concentration that inhibits the measured activity by half. Low values mean higher potency, high ones lower potency.

Regarding `O=c1ccc2ccccc2n1O` [Example 1, 1-hydroxyquinol-2-(1H)-one], on 12-lipoxygenase, the inhibition at 10 µM was found to be 93% and the inhibition at 100 µM worked out at 98%. Also, the IC50 at 5-lipoxygenase was 5300 nM. Also, on 15-lipoxygenase, the inhibition at 10 µM was 59% and the inhibition at 100 µM is 95%.
For `COC(=O)c1cc2ccccc2n(O)c1=O` [Example 2, 3-Carbomethoxy-1-hydroxyquinol-2(1H)-one], in that order: 66%, 94%, 24000 nM, 5% and 14%.
In turn, `O=c1c(Br)cc2ccccc2n1O` [Example 3, 3-Bromo-1-hydroxyquinol-2-(1H)-one] yielded an IC50 against 5-lipoxygenase of 4200 nM.
In the case of `Cc1cc(=O)n(O)c2ccccc12` [Example 4, 4-Methyl-1-hydroxyquinol-2(1H)-one], it took 1400 nM to reach half-maximal inhibition against 5-lipoxygenase (IC50). Compared with the last compound, the IC50 is about 3-fold lower.
Same read-out and setting: next, `COc1ccc2c(c1)c(Cl)cc(=O)n2O` [Example 5, 4-Chloro-6-methoxy-1-hydroxyquinol-2(1H)-one]: 1600 nM.
`O=c1ccc2c([N+](=O)[O-])cccc2n1O` [Example 6, 5-Nitro-1-hydroxyquinol-2(1H)-one]: on 12-lipoxygenase, the inhibition at 10 µM is 83% and the inhibition at 100 µM is 98%. This compound had an IC50 against 5-lipoxygenase of 3700 nM. In addition, on 15-lipoxygenase, the inhibition at 10 µM turned out to be 27% and the inhibition at 100 µM came to 98%.
In turn, `Cc1ccc2c(ccc(=O)n2O)c1[N+](=O)[O-]` [Example 7, 6-Methyl-5-nitro-1-hydroxyquinol-2(1H)-one] displayed an IC50 against 5-lipoxygenase of 2000 nM.
For `O=c1ccc2cc(Cl)ccc2n1O` [Example 8, 6-Chloro-1-hydroxyquinol-2(1H)-one], on 12-lipoxygenase, the inhibition at 10 µM came to 95% and the inhibition at 100 µM was 97%. Also, half-maximal inhibition against 5-lipoxygenase (IC50) required 870 nM. Also, on 15-lipoxygenase, the inhibition at 10 µM was 95% and the inhibition at 100 µM came to 100%.
On to `Cc1ccc2c(ccc(=O)n2O)c1` [Example 9, 6-Methyl-1-hydroxyquinol-2-(1H)-one], for which, on 5-lipoxygenase, the IC50 is 1100 nM.
In the case of `COc1ccc2c(ccc(=O)n2O)c1` [Example 10, 6-Methoxy-1-hydroxyquinol-2-(1H)-one], on 12-lipoxygenase, the inhibition at 10 µM is 90% and the inhibition at 100 µM turned out to be 97%. The compound further had an IC50 against 5-lipoxygenase of 1500 nM. Further, at 15-lipoxygenase, the inhibition at 10 µM turned out to be 62% and the inhibition at 100 µM is 94%.
`O=c1ccc2cc([N+](=O)[O-])ccc2n1O` [Example 11, 6-Nitro-1-hydroxyquinol-2(1H)-one]: the inhibition at 10 µM on 12-lipoxygenase came out at 67%; on 15-lipoxygenase it was 2%. Besides, the results for the inhibition at 100 µM at 12-lipoxygenase and at 15-lipoxygenase were 90% and 32%, respectively. On 5-lipoxygenase, this compound gave an IC50 of 14000 nM.
Consider `O=c1ccc2cc(-c3ccccc3)ccc2n1O` [Example 12, 6-Phenyl-1-hydroxyquinol-2(1H)-one], for which, at 12-lipoxygenase, the inhibition at 10 µM came out at 97% and the inhibition at 100 µM amounted to 98%. For the same compound, on 5-lipoxygenase, the IC50 was found to be 340 nM. Besides, on 15-lipoxygenase, the inhibition at 10 µM worked out at 97% and the inhibition at 100 µM turned out to be 100%.
Turning to `Cc1ccc2ccc(=O)n(O)c2c1` [Example 13, 7-Methyl-1-hydroxyquinol-2(1H)-one], on 12-lipoxygenase, the inhibition at 10 µM was determined as 94% and the inhibition at 100 µM worked out at 97%. Besides, half-maximal inhibition at 5-lipoxygenase (IC50) required 980 nM. On 15-lipoxygenase, the inhibition at 10 µM worked out at 61% and the inhibition at 100 µM worked out at 97%.
As for `O=c1ccc2c3ccccc3ccc2n1O` [Example 14, 5,6-Benzo-1-hydroxyquinol-2(1H)-one], the IC50 against 5-lipoxygenase stood at 840 nM.
Consider `O=c1c2ccccc2c2ccccc2n1O` [Example 15, 3,4-Benzo-1-hydroxyquinol-2(1H)-one], for which the inhibition at 10 µM at 12-lipoxygenase worked out at 96%; on 15-lipoxygenase, 13%. The inhibition at 100 µM is 98% on 12-lipoxygenase and 60% on 15-lipoxygenase. For the same compound, at 5-lipoxygenase, the IC50 was 2500 nM.
Take `CC(C)c1cc2ccccc2n(O)c1=O` [Example 16, 3-Isopropyl-1-hydroxy-quinol-2(1H)--one]: on 12-lipoxygenase, the inhibition at 10 µM was determined as 93% and the inhibition at 100 µM worked out at 98%. Besides, at 15-lipoxygenase, the inhibition at 10 µM is 40% and the inhibition at 100 µM amounted to 93%.
In turn, `O=c1c2ccccc2ccn1O` [Example 27, 2-hydroxyquinol-1(2H)-one] registered an IC50 at 5-lipoxygenase of 6000 nM.
For the compound `O=c1c2ccccc2cc(O)n1O` [Example 28, 2,3-Dihydroxyquinol-1(2H)-one], on 5-lipoxygenase (@ 100 uM, read-out: percentage inhibition of 5-lipoxygenase), the inhibition at 100 µM stood at 54%.
Regarding `O=c1c2ccccc2c(Br)cn1O` [Example 29, 4-Bromo-2-hydroxyquinol-1(2H)-one], at 12-lipoxygenase, the inhibition at 10 µM came out at 89% and the inhibition at 100 µM worked out at 96%. Also, the IC50 at 5-lipoxygenase turned out to be 2600 nM. At 15-lipoxygenase, the inhibition at 10 µM was determined as 43% and the inhibition at 100 µM was found to be 94%.
As for `O=c1c2ccccc2c([N+](=O)[O-])cn1O` [Example 30, 4-Nitro-2-hydroxyquinol-1(2H)-one], at 12-lipoxygenase, the inhibition at 10 µM turned out to be 54% and the inhibition at 100 µM was 83%. Also, at 5-lipoxygenase (@ 30 uM, read-out: percentage inhibition of 5-lipoxygenase), the inhibition at 30 µM was found to be 32%. For the same compound, on 15-lipoxygenase, the inhibition at 10 µM worked out at 10% and the inhibition at 100 µM was 12%.
As to `O=c1c2ccccc2c(-c2ccccc2)cn1O` [Example 31, 4-Phenyl-2-hydroxyquinol-1(2H)-one], on 12-lipoxygenase, the inhibition at 10 µM stood at 95% and the inhibition at 100 µM was 99%. The IC50 at 5-lipoxygenase amounted to 450 nM. On 15-lipoxygenase, the inhibition at 10 µM turned out to be 14% and the inhibition at 100 µM amounted to 50%.
Turning to `Cc1cn(O)c(=O)c2ccccc12` [Example 32, 4-Methyl-2-hydroxy-quinol-1(2H)-one], at 5-lipoxygenase, the half-inhibitory concentration (IC50) was 3900 nM.
Same read-out and setting: for `Cc1cccc2c(=O)n(O)ccc12` [Example 33, 5-Methyl-2-hydroxyquinol-2(1H)-one] the value was 2400 nM; for `O=c1c2ccccc2c(-c2ccccc2)c(-c2ccccc2)n1O` [Example 35], 1500 nM.
